Assay results taken from US20230233533A1, “COMPOSITIONS, METHODS OF TREATING AND PREVENTING FUNGAL INFECTIONS, AND METHODS OF INHIBITING PRP8 INTEIN EXPRESSION” (Health Research, Inc., priority 2020, published 2023).
Values after ≈ are worked out from the molar mass of the structure shown. Read-outs that look alike come from different tables or passages of the source.

Legend:
[1] = test system: C. neoformans H99 strain; assay: Fungal susceptibility test, broth microdilution MIC; assay type: cell-based, Cryptococcus neoformans; details: for MIC: Cryptococcus neoformans, H99STRAIN
Outline: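 Compound MICs were determined by broth microdilution using a compound concentration series.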

[2] = molecular target: T1, C1A Prp8 intein mutant (Cryptococcus gattii, UniProt E6R027, C1531A); details: C1A versus WT, SPR
T1 sequence (E6R027 1531-1700 C1531A): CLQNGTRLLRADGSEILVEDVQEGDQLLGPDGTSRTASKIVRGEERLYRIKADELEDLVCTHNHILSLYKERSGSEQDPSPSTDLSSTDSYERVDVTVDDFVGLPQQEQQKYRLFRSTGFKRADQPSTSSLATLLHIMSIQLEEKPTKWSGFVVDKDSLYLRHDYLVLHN
Procedure: The Prp8 intein and mutants were immobilized onto a ProteOn™ GLH sensor chip (2,500-7,000 RU) (Bio-Rad). A 3-fold dilution series of compounds was injected as the analytes. A blank surface blocked by ethanolamine was used as the control surface. The experiment was carried out at a flow rate of 100 μl/min using a PBSTD buffer containing 1×PBS, 0.005% surfactant P20, and 5% DMSO. Association (ka) and dissociation (kd) rates, as well as the dissociation constant (KD), were obtained by global fitting of the SPR data from multiple concentrations to a simple 1:1 Langmuir binding model, using the ProteOn Manager software suite (Bio-Rad).

Which results are given for `O=C(Nc1ccc(F)cc1)c1nnsc1S(=O)(=O)c1ccc(Cl)cc1` [6G-318S, 5-[(4-chlorophenyl)sulfonyl]-N-(4-fluorophenyl)-1,2,3-thiadiazole-4-carboxamide]?
MIC ([1]; C. neoformans H99, microbroth dilution, read-out: MIC H99): 1.56 µM; MIC ([1]; C. neoformans and other related species, read-out: minimum inhibitory concentration (MIC) 90): 0.6 to 1 µg/mL; MIC ([1]; H99 strain, 48 h, 30° C., read-out: MIC C. neoformans): 0.62 µg/mL; MIC C. neoformans ([1]; H99 strain, 48 h, 30° C.): 0.6 µg/mL (≈ 1.51 µM); reduction of binding affinity by Cys1 to alanine mutation [2]: ~3 fold
